Activity calls are given as the source filed them. No cut-off for these calls is given here.
Experiments:
[1] = biological target: T1, Peroxisome proliferator-activated receptor alpha (Homo sapiens) (UniProt Q07869); experiment: Agonist activity at human PPARalpha at 10 uM; conditions: filed as agonist
T1 sequence (whole entry): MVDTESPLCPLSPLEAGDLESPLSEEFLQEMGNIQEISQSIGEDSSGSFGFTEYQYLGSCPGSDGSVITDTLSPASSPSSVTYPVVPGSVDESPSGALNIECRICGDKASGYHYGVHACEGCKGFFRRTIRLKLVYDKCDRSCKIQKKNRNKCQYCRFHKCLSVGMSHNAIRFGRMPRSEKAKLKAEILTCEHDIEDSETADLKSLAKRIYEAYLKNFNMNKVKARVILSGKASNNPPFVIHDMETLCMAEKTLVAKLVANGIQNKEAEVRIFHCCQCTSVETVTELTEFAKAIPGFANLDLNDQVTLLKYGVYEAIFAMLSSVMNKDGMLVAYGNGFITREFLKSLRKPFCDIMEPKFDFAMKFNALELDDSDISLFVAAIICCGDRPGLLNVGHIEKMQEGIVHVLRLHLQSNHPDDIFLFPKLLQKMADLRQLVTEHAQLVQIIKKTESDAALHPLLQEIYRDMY

[2] = biological target: T2, Peroxisome proliferator-activated receptor gamma (Homo sapiens) (UniProt P37231); experiment: Agonist activity at human PPARgamma at 10 uM; conditions: filed as agonist
T2 sequence (whole entry): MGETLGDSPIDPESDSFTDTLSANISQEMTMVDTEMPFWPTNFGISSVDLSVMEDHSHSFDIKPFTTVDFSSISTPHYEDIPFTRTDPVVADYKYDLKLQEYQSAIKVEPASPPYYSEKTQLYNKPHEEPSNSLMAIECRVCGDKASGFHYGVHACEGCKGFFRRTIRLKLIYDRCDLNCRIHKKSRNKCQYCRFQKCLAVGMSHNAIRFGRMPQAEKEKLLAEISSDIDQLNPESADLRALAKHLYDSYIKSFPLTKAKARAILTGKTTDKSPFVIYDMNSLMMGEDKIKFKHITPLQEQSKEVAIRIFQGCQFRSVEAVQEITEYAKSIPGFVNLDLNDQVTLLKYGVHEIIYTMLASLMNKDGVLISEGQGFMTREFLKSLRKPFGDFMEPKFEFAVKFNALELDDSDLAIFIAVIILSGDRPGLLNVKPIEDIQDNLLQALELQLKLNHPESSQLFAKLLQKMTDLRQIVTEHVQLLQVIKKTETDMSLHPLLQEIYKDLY

[3] = species on record: Homo sapiens; experiment: Selectivity for agonist activity at human PPARalpha over agonist activity at human PPARgamma

Row | Structure (SMILES) | Activity [1] | Activity [2] | Selectivity ratio [3]
1 | CCOC(=O)/C(=C/CC/C(C)=C/CCC1(C)CCc2cc(OCc3ccc(F)cc3)ccc2O1)OCC (configuration not stated) | Active | Active | 
2 | Cc1cccc(Nc2cc(Cl)nc(SCC(=O)O)n2)c1C | Active |  | 
3 | CCOC(=O)/C(=C/CC/C(C)=C/CCC1(C)CCc2cc(OCc3ccccc3)ccc2O1)OCC (configuration not stated) | Active | Active | 
4 | CC1(CC/C=C(\OCC(F)(F)F)C(=O)O)CCc2cc(OCc3ccccc3)ccc2O1 (configuration not stated) | Active | Active | 1.73
5 | CCOC(=O)/C(=C/CC/C(C)=C/CCC1(C)CCc2cc(OCc3ccccc3)ccc2O1)OCC(F)(F)F (configuration not stated) | Active | Active | 
6 | CCCOc1ccc2c(c1)CCC(C)(CC/C=C(\C)CC/C=C(\OCC)C(=O)OCC)O2 (configuration not stated) | Active | Active | 
7 | CCO/C(=C\CC/C(C)=C/CCC1(C)CCc2cc(OCc3ccccc3)ccc2O1)C(=O)O (configuration not stated) | Active | Active | 0.64
8 | CCOC(=O)/C(=C/CCC1(C)CCc2cc(OCc3ccccc3)ccc2O1)OCC(F)(F)F (configuration not stated) | Active | Active | 
